Reference: US8598122B2, “Antagonistic peptides for frizzled-1 and frizzled-2” (Universiteit Maastricht, priority 2009, dated 2013)
“Also recorded” adds a separate entry of the source. Where a SMILES comes first, the peptide text is derived from it.

Tests used:
[1] = target: T1, hFzd-4 (Homo sapiens, UniProt Q9ULV1); assay: Luciferase activity in HEK293 superTOPflash cells overexpressing hFzd-4; format: cell-based; details: 1.10^−8 M
T1 construct: expressed in transfected cells; host or cells: HEK293 superTOPflash, transient, pcDNA3.1/hygro
T1 sequence (Q9ULV1 37-537): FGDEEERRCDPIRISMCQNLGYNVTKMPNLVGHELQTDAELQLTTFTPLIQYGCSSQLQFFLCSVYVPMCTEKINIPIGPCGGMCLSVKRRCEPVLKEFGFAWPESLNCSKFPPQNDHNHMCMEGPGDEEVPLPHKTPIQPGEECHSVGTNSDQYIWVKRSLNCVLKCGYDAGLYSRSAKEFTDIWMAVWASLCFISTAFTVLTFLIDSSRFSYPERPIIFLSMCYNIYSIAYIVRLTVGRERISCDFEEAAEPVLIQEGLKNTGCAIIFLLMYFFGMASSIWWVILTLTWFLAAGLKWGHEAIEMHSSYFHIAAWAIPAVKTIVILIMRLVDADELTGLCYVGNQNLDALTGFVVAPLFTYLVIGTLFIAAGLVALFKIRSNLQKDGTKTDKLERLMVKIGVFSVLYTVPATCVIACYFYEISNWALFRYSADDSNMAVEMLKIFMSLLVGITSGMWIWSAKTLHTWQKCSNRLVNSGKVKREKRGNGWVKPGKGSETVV
Protocol: In FIG. 3, Panel E, the efficacy of UM206 to block the Wnt3a-induced activation of luciferase activity in HEK293 superTOPflash cells transfected with different Fzds is shown.
The cell lines were cultured in 75 cm^2 culture flasks (Corning, Schiphol, the Netherlands) in Dulbeco's modified essential medium with L-glutamine (2 mM), 10% fetal calf serum (Invitrogen, Merelbeke, Belgium), and 1% gentamycin (Sigma-Aldrich, Zwijndrecht, The Netherlands). Before starting the experiment, the cell lines were treated with plasmocin 25 μg/ml (Invivogen, Toulose, France) and tested with a mycoalert mycoplasma detection kit (Lonza, Rockland Me., USA). Cells were transiently transfected with Fugene6 (Roche, Indianapolis Ind., USA) with plasmid DNA, pcDNA3.1/hygro (Invitrogen) with frizzled-1/2/4 or Wnts 3a-5a or with pcDNA3.0 (Invitrogen) containing the β-catenin or frizzled-5 sequence. After transfection, the cells were cultured for 24 hours in conditioned medium, collected from the cultured L-cells, L-cells with Wnt3a or 5a (Invitrogen). At the same moment the antagonist was added.

[2] = system: mice with myocardial infarction; assay: Myocardial infarction model in mice, UM206 by osmotic minipump; format: in vivo
Protocol: All animals were subjected to extensive echocardiography studies for the assessment of myocardial infarct size, LV cavity dimensions and ventricular function. Echocardiography examination was performed under 2% isofluorane. Echocardiograms were recorded with Philips Sonos 5500 ultrasound system (Philips, Eindhoven, the Netherlands) using a 20-MHz linear probe.
The animals were anaesthetized with urethane ([…] body weight, i.p., Sigma-Aldrich) followed by intubation and connected to a rodent ventilator (Hugo Sachs, March-Hugstetten, Germany). Body temperature was maintained at 37° C. The mice were then allowed to stabilize prior to hemodynamic measurements. A high-fidelity catheter tip micromanometer (Mikro-tip1.4F, SPR-671; Millar Instruments, Houston TX, USA) was inserted through the right carotid artery into the left ventricular cavity. Ventricular pressure was measured. Maximal positive and negative pressure development (+dP/dt and −dP/dt) and heart rate were determined on a beat-to-beat basis. The heart was then stimulated by an i.v. ramp-infusion of dobutamine (Sigma-Aldrich) using a micro-injection pump (Model 200 Series, KdScientific, Boston, Mass., USA).
One-half of the hearts of the mice was embedded in paraffin and cut in 4 μm sections. The paraffin sections were rehydrated and washed in PBS. One section was stained with AZAN, allowing an accurate determination of the infarct size. To visualize the myofibroblasts in the infarct area, the sections were incubated with an antibody directed against a-smooth muscle actin (Sigma-Aldrich), followed by incubation with the peroxidase-conjugated secondary antibody (Vector laboratories). Nuclei were visualized by hematoxylin. Photos were taken with a Leica (CTR500, 63x/0.85) camera and analyzed with the Quantimet program (QWin/QGo). An examiner blinded to the groups of the animals obtained all measurements. For the experiments with Rhodamine-labeled UM206, frozen sections (4 μm) of mouse kidney and small intestine were used.

[3] = system: small intestine; assay: qPCR of Wnt target genes in small intestine after long-term UM206 administration; format: in vivo, mice; design: key to Rel. exp. Col I: expression normalized to cyclophilin housekeeping gene; key to Rel. exp. Inos / Rel. exp. CD 44 / Rel. exp. Axin 2 / Rel. exp. Itm 2A / Rel. exp. Mmp 2 / Rel. exp. Ascl 2 / Rel. exp. Dvl 2: relative expression, cyclophilin as housekeeping gene
Excerpt: This was confirmed by histological analysis of the infarct area.
RNA was isolated using the Trizol method (Invitrogen). For the RT-PCR, the RNA was transcribed to cDNA with iscript™ cDNA synthesis kit (Bio-Rad, Hercules Calif., USA), Syber green (Eurogentec, Ghent, Belgium) was used for the detection of cDNA levels and cyclophilin served as the house keeping gene. In Supplementary methods panel 5, the primer sequences are shown.

[4] = five weeks treatment, vs saline

`CSCC[C@H](NC(=O)CNC(=O)[C@H](CCC(=O)O)NC(=O)[C@H](CO)NC(=O)[C@@H](NC(=O)[C@H](CCCCN)NC(=O)[C@H](CC(N)=O)NC(=O)[C@H](CS)NC(C)=O)[C@@H](C)O)C(=O)N[C@@H](CC(=O)O)C(=O)NCC(=O)N[C@@H](CS)C(=O)N[C@@H](CCC(=O)O)C(=O)N[C@@H](CC(C)C)C(N)=O` [UM206, Ac-Cys-Asn-Lys-Thr-Ser-Glu-Gly-Met-Asp-Gly-Cys-Glu-Leu-NH2] (Ac-CNKTSEGMDGCEL-NH2) was tested, and the “Effect on Wnt3a-induced luciferase activity, frizzled-4” value [1] was “no effect”, the “tangents on the pressure time curve (dP/dt)” value ([2]; Millar catheter in left ventricle, vs saline) was “significantly steeper” and the “change of ejection fraction (echocardiography)” value ([2]; UM206-treated vs saline) was “doubling”. The “reduction in end diastolic volume of the left ventricle” value ([2]; UM206-treated vs saline) was 40%, the AoD ([2]; echocardiography, AVG) was 0.18 cm and the EDV_L ([2]; echocardiography, AVG) was 0.132 cm^3. For the same molecule, the EF_L ([2]; echocardiography, AVG) was 31.4%, the ESV_L ([2]; echocardiography, AVG) was 0.090 cm^3 and the FS ([2]; echocardiography, AVG) was 13.20%. It also gave an IVS anterior ([2]; echocardiography, AVG) of 8.10%, an IVSd anterior wall ([2]; echocardiography, AVG) of 0.07 cm and an IVSd posterior wall ([2]; echocardiography, AVG) of 0.09 cm. The IVSs anterior wall ([2]; echocardiography, AVG) was 0.07 cm, the IVSs posterior wall ([2]; echocardiography, AVG) was 0.14 cm and the LVAs ([2]; echocardiography, AVG) was 0.30 cm^2. The LVIDd ([2]; echocardiography, AVG) was 0.59 cm, the LVIDs ([2]; echocardiography, AVG) was 0.52 cm and the SV_L ([2]; echocardiography, AVG) was 0.041 cm^3. The LVLd ([2]; echocardiography, AVG, first listing (r8)) was 0.91 cm, the LVLs ([2]; echocardiography, AVG, first listing (r10)) was 0.86 cm and the LVLd ([2]; echocardiography, AVG, second listing (r12)) was 0.95 cm. The LVLs ([2]; echocardiography, AVG, second listing (r13)) was 0.89 cm, the LVAd ([2]; echocardiography, mice post-MI, AVG) was 0.38 cm^2 and the “mortality / survival after MI” value ([2]; five weeks after MI, 6 microgram/kg/day minipump, saline 35% died) was “not a single mouse had died; also recorded: completely prevented the mortality”. The “wet lung weight of surviving saline-treated mice higher than in UM206-treated mice” value ([2]; five weeks post-MI) was 40%, the “blood vessels in the infarct area” value [2, 4] was “increased amount of blood vessels” and the “collagen levels in the infarct area” value [2, 4] was “reduced collagen levels”. The “a-SMA levels in infarcts (qPCR, Western blotting)” value ([2]; five-week-old infarcts, vs saline) was “significantly higher”, the Diastolic pressure ([2]; hemodynamic measurements, AVG) was 1.27 mmHg and the Left ventricular pressure ([2]; hemodynamic measurements, AVG) was 10.14 mmHg. For the same molecule, the Maximum negative slope ([2]; hemodynamic measurements, AVG) was −2542.08 mmHg/sec, the Maximum negative slope/pressure ([2]; hemodynamic measurements, AVG) was 32.84 s⁻¹ and the Maximum positive slope ([2]; hemodynamic measurements, AVG) was 5343.84 mmHg/sec. For the same molecule, the Maximum positive slope/pressure ([2]; hemodynamic measurements, AVG) was 69.13 s⁻¹, the “Pressure of negative slope” value ([2]; hemodynamic measurements, AVG) was −9.44 mmHg and the “Pressure of positive slope” value ([2]; hemodynamic measurements, AVG) was 17.78 mmHg. It also gave a Systolic pressure ([2]; hemodynamic measurements, AVG) of 27.93 mmHg, a Heart rate ([2]; hemodynamic measurements, mean of 26 animals) of 106.32 beats/min and an amount of myofibroblasts ([2]; in vivo model of myocardial infarction, in comparison to 4%) of 20%. The “adverse effects of chronic administration” value ([2]; mouse, in vivo) was “did not observe any adverse effects”, the “effects on other organs known to contain Fzd-2, including kidney and small intestine” value ([2]; mouse, in vivo) was “did not observe any effects” and the “myofibroblast numbers in the infarct area relative to saline-treated mice” value ([2]; two weeks post-MI) was “more than four-fold; also recorded: four-fold”. For the same molecule, the infarct area size ([2]; vs saline-treated mice, 2 and 5 weeks after MI) was “significantly smaller”, the “thickness of the infarct area” value ([2]; vs saline, both time points) was “significantly thicker” and the “influence on the expression patterns in the small intestine” value ([3]; UM206 for five weeks) was “These data indicate that UM206 had no influence on the expression patterns in the small intestine”. The “Rel. exp. Ascl 2” value ([3]; small intestine) was 1.42, the “Rel. exp. Axin 2” value ([3]; small intestine) was 1.05 and the “Rel. exp. CD 44” value ([3]; small intestine) was 1.22. The “Rel. exp. Col I” value ([3]; small intestine) was 1.32, the “Rel. exp. Dvl 2” value ([3]; small intestine) was 1.13 and the “Rel. exp. Inos” value ([3]; small intestine) was 1.18. For the same molecule, the “Rel. exp. Itm 2A” value ([3]; small intestine) was 0.97 and the “Rel. exp. Mmp 2” value ([3]; small intestine) was 1.32.
